Measurements taken from US10722512B2, “Combinations of histone deacetylase inhibitors and either HER2 inhibitors or PI3K inhibitors” (Acetylon Pharmaceuticals, Inc., priority 2013, dated 2020).

What was measured:
Assay type in all cases: cell-based
BT-549 = test: Breast cancer cell viability, 48 hours, MTA assay; settings: 48 hours; for Synergy: BT-549, combination with cmpd A, Chou-Talalay CI; for IC50: Homo sapiens, BT-549, single agent, read-out: IC50
From the text: (§1) Cell viabilities were used to calculate “Fraction Affected” (Fa) and “Combination Index” (CI) values using the Chou-Talalay method. Any combination with a CI value<0.70 at a Fa value between 0.25 and 0.75 was defined as positive synergy.

BT474 = test: Breast cancer cell viability, 48 hours, MTA assay; settings: 48 hours; for Synergy: BT474, combination with cmpd A, Chou-Talalay CI; for IC50: Homo sapiens, BT-474, BT474, single agent, read-out: IC50
From the text: as §1

Bcap-37 = test: Breast cancer cell viability, 48 hours, MTA assay; settings: 48 hours; for Synergy: Bcap-37, combination with cmpd A, Chou-Talalay CI; for IC50: Homo sapiens, Bcap37, Bcap-37, single agent, read-out: IC50
From the text: as §1

HCC1937 = test: Breast cancer cell viability, 48 hours, MTA assay; settings: 48 hours; for Synergy: HCC1937, combination with cmpd A, Chou-Talalay CI; for IC50: Homo sapiens, HCC1937, single agent, read-out: IC50
From the text: as §1

HCC38 = test: Breast cancer cell viability, 48 hours, MTA assay; settings: 48 hours; for Synergy: HCC38, combination with cmpd A, Chou-Talalay CI; for IC50: Homo sapiens, HCC38, single agent, read-out: IC50
From the text: as §1

Hs578T = test: Breast cancer cell viability, 48 hours, MTA assay; settings: Hs578T, 48 hours; for IC50: Homo sapiens, Hs-578T, single agent, read-out: IC50; for Synergy: combination with cmpd A, Chou-Talalay CI
From the text: as §1

MCF-7 = test: Breast cancer cell viability, 48 hours, MTA assay; settings: 48 hours; for IC50: Homo sapiens, MCF7, MCF-7, single agent, read-out: IC50; for Synergy: MCF-7, combination with cmpd A, Chou-Talalay CI
From the text: as §1

MDA-MB-231 = test: Breast cancer cell viability, 48 hours, MTA assay; settings: 48 hours; for IC50: Homo sapiens, MDA-MB-231, single agent, read-out: IC50; for Synergy: MDA-MB-231, combination with cmpd A, Chou-Talalay CI
From the text: as §1

MDA-MB-361 = test: Breast cancer cell viability, 48 hours, MTA assay; settings: 48 hours; for IC50: Homo sapiens, MDA-MB-361, single agent, read-out: IC50
From the text: as §1

MDA-MB-436 = test: Breast cancer cell viability, 48 hours, MTA assay; settings: 48 hours; for IC50: Homo sapiens, MDA-MB-436, single agent, read-out: IC50
From the text: as §1

MDA-MB-453 = test: Breast cancer cell viability, 48 hours, MTA assay; settings: 48 hours; for IC50: Homo sapiens, MDA-MB-453, single agent, read-out: IC50; for Synergy: MDA-MB-453, combination with cmpd A, Chou-Talalay CI
From the text: as §1

MDA-MB-468 = test: Breast cancer cell viability, 48 hours, MTA assay; settings: 48 hours; for IC50: Homo sapiens, MDA-MB-468, single agent, read-out: IC50; for Synergy: MDA-MB-468, combination with cmpd A, Chou-Talalay CI
From the text: as §1

MX-1 = test: Breast cancer cell viability, 48 hours, MTA assay; settings: 48 hours; for IC50: Homo sapiens, MX1, MX-1, single agent, read-out: IC50; for Synergy: MX-1, combination with cmpd A, Chou-Talalay CI
From the text: as §1

SK-BR-3 = test: Breast cancer cell viability, 48 hours, MTA assay; settings: 48 hours; for IC50: Homo sapiens, SK-BR-3, single agent, read-out: IC50; for Synergy: SK-BR-3, combination with cmpd A, Chou-Talalay CI
From the text: as §1

T-47D* = test: Breast cancer cell viability, 48 hours, MTA assay; settings: T-47D*, 48 hours; for IC50: Homo sapiens, T47D, single agent, read-out: IC50; for Synergy: combination with cmpd A, Chou-Talalay CI
From the text: as §1

ZR-75-1 = test: Breast cancer cell viability, 48 hours, MTA assay; settings: 48 hours; for IC50: Homo sapiens, ZR-75-1, single agent, read-out: IC50; for Synergy: ZR-75-1, combination with cmpd A, Chou-Talalay CI
From the text: as §1

[1] = system: Her2+ breast cancer cells

IC50 (BT-549) [nM] | IC50 (BT474) [nM] | IC50 (Bcap-37) [nM] | IC50 (HCC1937) [nM] | IC50 (HCC38) [µM] | IC50 (Hs578T) [nM] | IC50 (MCF-7) [nM] | IC50 (MDA-MB-231) [nM] | IC50 (MDA-MB-361) [µM] | IC50 (MDA-MB-436) [µM] | IC50 (MDA-MB-453) [nM] | IC50 (MDA-MB-468) [nM] | IC50 (MX-1) [nM] | Compound | Synergy (BT-549) | Synergy (BT474) | Synergy (Bcap-37) | Synergy (HCC1937) | Synergy (HCC38) | Synergy (Hs578T) | Synergy (MDA-MB-468) | further results
30 | 190 | 170 | 240 | 0.18 | 1560 | 820 | 730 | 0.17 | 0.17 | 220 | 100 | 240 | COc1cccc2c1C(=O)c1c(O)c3c(c(O)c1C2=O)C[C@@](O)(C(=O)CO)C[C@@H]3O[C@H]1C[C@H](N)[C@H](O)[C@H](C)O1 [Doxorubicin] | S (Any combination with a CI value<0.70 at a Fa value between 0.25 and 0.75 was defined as positive synergy) | S (Any combination with a CI value<0.70 at a Fa value between 0.25 and 0.75 was defined as positive synergy) | S (Any combination with a CI value<0.70 at a Fa value between 0.25 and 0.75 was defined as positive synergy) | S (Any combination with a CI value<0.70 at a Fa value between 0.25 and 0.75 was defined as positive synergy) | S (Any combination with a CI value<0.70 at a Fa value between 0.25 and 0.75 was defined as positive synergy) | S (Any combination with a CI value<0.70 at a Fa value between 0.25 and 0.75 was defined as positive synergy) | S (Any combination with a CI value<0.70 at a Fa value between 0.25 and 0.75 was defined as positive synergy) | Synergy (MDA-MB-231): S (Any combination with a CI value<0.70 at a Fa value between 0.25 and 0.75 was defined as positive synergy); Synergy (MX-1): S (Any combination with a CI value<0.70 at a Fa value between 0.25 and 0.75 was defined as positive synergy); IC50 (SK-BR-3): 120 nM; Synergy (SK-BR-3): S (Any combination with a CI value<0.70 at a Fa value between 0.25 and 0.75 was defined as positive synergy); IC50 (T-47D*): 150 nM; Synergy (T-47D*): S (Any combination with a CI value<0.70 at a Fa value between 0.25 and 0.75 was defined as positive synergy); IC50 (ZR-75-1): 130 nM; Synergy (ZR-75-1): S (Any combination with a CI value<0.70 at a Fa value between 0.25 and 0.75 was defined as positive synergy)
1660 | 90 | 2480 | 2450 | 7.44 | 1110 | 430 | 1690 | 3.27 | 3.27 | 290 | 2930 | 560 | CS(=O)(=O)N1CCN(Cc2cc3nc(-c4cccc5[nH]ncc45)nc(N4CCOCC4)c3s2)CC1 [GDC-0941] | S (Any combination with a CI value<0.70 at a Fa value between 0.25 and 0.75 was defined as positive synergy) | S (Any combination with a CI value<0.70 at a Fa value between 0.25 and 0.75 was defined as positive synergy) | S (Any combination with a CI value<0.70 at a Fa value between 0.25 and 0.75 was defined as positive synergy) | S (Any combination with a CI value<0.70 at a Fa value between 0.25 and 0.75 was defined as positive synergy) | S (Any combination with a CI value<0.70 at a Fa value between 0.25 and 0.75 was defined as positive synergy) | S (Any combination with a CI value<0.70 at a Fa value between 0.25 and 0.75 was defined as positive synergy) | S (Any combination with a CI value<0.70 at a Fa value between 0.25 and 0.75 was defined as positive synergy) | Synergy (MCF-7): S (Any combination with a CI value<0.70 at a Fa value between 0.25 and 0.75 was defined as positive synergy); Synergy (MDA-MB-231): S (Any combination with a CI value<0.70 at a Fa value between 0.25 and 0.75 was defined as positive synergy); Synergy (MDA-MB-361; MDA-MB-361, combination with cmpd A, Chou-Talalay CI): S (Any combination with a CI value<0.70 at a Fa value between 0.25 and 0.75 was defined as positive synergy); Synergy (MDA-MB-436; MDA-MB-436, combination with cmpd A, Chou-Talalay CI): S (Any combination with a CI value<0.70 at a Fa value between 0.25 and 0.75 was defined as positive synergy); Synergy (MDA-MB-453): S (Any combination with a CI value<0.70 at a Fa value between 0.25 and 0.75 was defined as positive synergy); Synergy (MX-1): S (Any combination with a CI value<0.70 at a Fa value between 0.25 and 0.75 was defined as positive synergy); IC50 (SK-BR-3): 220 nM; Synergy (SK-BR-3): S (Any combination with a CI value<0.70 at a Fa value between 0.25 and 0.75 was defined as positive synergy); IC50 (T-47D*): 620 nM; Synergy (T-47D*): S (Any combination with a CI value<0.70 at a Fa value between 0.25 and 0.75 was defined as positive synergy); IC50 (ZR-75-1): 210 nM; Synergy (ZR-75-1): S (Any combination with a CI value<0.70 at a Fa value between 0.25 and 0.75 was defined as positive synergy); cytotoxicity of the combination with Compound A [1]: synergistic cytotoxicity

Compound | IC50 (BT-549) [nM] | IC50 (BT474) [nM] | IC50 (Bcap-37) [nM] | IC50 (HCC1937) [nM] | IC50 (HCC38) [µM] | IC50 (Hs578T) [nM] | IC50 (MCF-7) [nM] | IC50 (MDA-MB-231) [nM] | IC50 (MDA-MB-361) [µM] | IC50 (MDA-MB-436) [µM] | IC50 (MDA-MB-453) [nM] | IC50 (MDA-MB-468) [nM] | IC50 (MX-1) [nM] | Synergy (BT-549) | Synergy (BT474) | Synergy (Bcap-37) | Synergy (HCC1937) | Synergy (HCC38) | Synergy (Hs578T) | Synergy (MDA-MB-468) | further results
CS(=O)(=O)CCNCc1ccc(-c2ccc3ncnc(Nc4ccc(OCc5cccc(F)c5)c(Cl)c4)c3c2)o1 [Lapatinib] | 6530 | 40 | 10900 | 5560 | 5.05 | 5770 | 5780 | 7170 | 9.31 | 9.31 | 130 | 5600 | 1010 | S (Any combination with a CI value<0.70 at a Fa value between 0.25 and 0.75 was defined as positive synergy) | S (Any combination with a CI value<0.70 at a Fa value between 0.25 and 0.75 was defined as positive synergy) | S (Any combination with a CI value<0.70 at a Fa value between 0.25 and 0.75 was defined as positive synergy) | S (Any combination with a CI value<0.70 at a Fa value between 0.25 and 0.75 was defined as positive synergy) | S (Any combination with a CI value<0.70 at a Fa value between 0.25 and 0.75 was defined as positive synergy) | S (Any combination with a CI value<0.70 at a Fa value between 0.25 and 0.75 was defined as positive synergy) | S (Any combination with a CI value<0.70 at a Fa value between 0.25 and 0.75 was defined as positive synergy) | Synergy (MCF-7): S (Any combination with a CI value<0.70 at a Fa value between 0.25 and 0.75 was defined as positive synergy); Synergy (MDA-MB-453): S (Any combination with a CI value<0.70 at a Fa value between 0.25 and 0.75 was defined as positive synergy); Synergy (MX-1): S (Any combination with a CI value<0.70 at a Fa value between 0.25 and 0.75 was defined as positive synergy); IC50 (SK-BR-3): 60 nM; Synergy (SK-BR-3): S (Any combination with a CI value<0.70 at a Fa value between 0.25 and 0.75 was defined as positive synergy); IC50 (T-47D*): 23300 nM; Synergy (T-47D*): S (Any combination with a CI value<0.70 at a Fa value between 0.25 and 0.75 was defined as positive synergy); IC50 (ZR-75-1): 2690 nM; Synergy (ZR-75-1): S (Any combination with a CI value<0.70 at a Fa value between 0.25 and 0.75 was defined as positive synergy); cytotoxicity of the combination with Compound A [1]: synergistic cytotoxicity
